Experimental findings from article PMC5471252, “Anti-leukemia activity of a Hsp70 inhibitor and its hybrid molecules” (Scientific Reports, 2017) are described below.

The test system of one assay is KG-1 cells. The experiment in a line: MTT assay, cell viability of KG-1 cells. Conditions: Homo sapiens, 48 h, mean ± s.d., n = 3, read-out: IC50 values of compounds for leukemia cells. In kind it is cell-based.
A further assay concerns U937 cells. The assay is described as follows: MTT assay, cell viability of U937 cells. It is filed as cell-based. The conditions noted are these: Homo sapiens, U-937, 48 h, mean ± s.d., n = 3, read-out: IC50 values of compounds for leukemia cells.
Assay [1] has as its system caspase activity of HL-60 and K562 cells. The assay is described as follows: Caspase activity assay with Ac-DEVD-pNA in cell lysates. In kind it is cell-based, human. Conditions: lysates of cells treated 24 h. On the procedure:
Because Az inhibits the association of Hsp70 with Apaf-1, caspase associated proteolytic activities should increase in cells treated with Az. To determine whether this event occurs, caspase activities of HL-60 and K562 cells treated with Az were measured by using the colorimetric substrate, Ac-DEVD-pNA (pNA, p-nitroaniline). […] We also examined whether leukemia cells are protected from the effect of Az by ZVAD-FMK (benzyloxycarbonyl-Val-Ala-Asp(OMe) fluoromethyl ketone, a cell-permeable inhibitor of pan-caspases). HL-60 and K562 cells were pre-incubated with ZVAD-FMK for 3 h and subsequently exposed to Az.
HL-60 and K562 cells treated with each compound for 24 h were lysed in a buffer containing 50 mM HEPES (pH 7.4), 5 mM CHAPS and 5 mM DTT. Assay buffer containing 20 mM HEPES (pH 7.4), 0.01% CHAPS, 5 mM DTT and 2 mM EDTA was added to cell lysates. Caspase activity was measured in the absence or presence of acetyl-DEVD-pNA (200 μM) (Sigma-Aldrich) by using a microplate reader (monitored at 405 nm).

For a further assay, the system named is Jurkat cells. The assay is described as follows: MTT assay, cell viability of Jurkat cells. It is filed as cell-based. The conditions noted are these: Homo sapiens, 48 h, mean ± s.d., n = 3, read-out: IC50 values of compounds for leukemia cells.
For the next assay, the system named is THP-1 cells. The experiment in a line: MTT assay, cell viability of THP-1 cells. The conditions noted are these: Homo sapiens, 48 h, mean ± s.d., n = 3, read-out: IC50 values of compounds for leukemia cells. It is filed as cell-based.
A further assay relates to K562 cells. The assay is described as follows: MTT assay, cell viability of K562 cells. In kind it is cell-based. Conditions: Homo sapiens, 48 h, mean ± s.d., n = 3, read-out: IC50 values of compounds for leukemia cells.
A further assay relates to HL-60 cells. The experiment in a line: MTT assay, cell viability of HL-60 cells. In kind it is cell-based. Conditions: Homo sapiens, 48 h, mean ± s.d., n = 3, read-out: IC50 values of compounds for leukemia cells.
Assay [2] addresses T1, ATPase domain (1-386 residues) of human Hsc70 (Homo sapiens, UniProt P11142).
T1 construct: pET28a-human Hsc70 ATPase domain (1-386 residues); inferred from the pET28a vector and nickel-column purification; made in house; host or cells: E. coli BL21 (DE3)
The assay is described as follows: STD NMR competition with ATP-γ-S. It is filed as binding. The conditions noted are these: ATP-γ-S in place of ATP, Az phosphate salt form. On the procedure:
However, the detailed mode of Az binding to the proteins has not been elucidated. To gain information about the molecular basis of Az binding to Hsp70 proteins, NMR studies were carried out on a complex of Az with an ATPase domain (1-386 residues) of human Hsc70. Saturation transfer difference (STD) NMR studies were conducted initially to obtain information on Az binding to the ATPase domain of Hsc70[30]. […] Next, we evaluated whether Az affects binding of ATP to the ATPase domain. For STD experiments, less hydrolytic ATP-γ-S was used in place of ATP.
For STD experiments, 10 μM of an ATPase domain of Hsc70, 1 mM of ATP-γ-S and Az (a phosphate salt form) were used. For competition studies between ATP-γ-S and Az, STD of the sample with 5 μM ATPase domain of Hsc70 and 500 μM ATP-γ-S was initially measured, and further titrated with Az up to 1 mM. The ratios of ATP-γ-S to Az were 1:0, 1:1, 1:1.5, and 1:2. All STD NMR spectra were obtained using 20 mM solutions of deuterated Tris buffer with 5% (v/v) DMSO-d6 (pD 7.2).

T1 sequence (P11142 1-386): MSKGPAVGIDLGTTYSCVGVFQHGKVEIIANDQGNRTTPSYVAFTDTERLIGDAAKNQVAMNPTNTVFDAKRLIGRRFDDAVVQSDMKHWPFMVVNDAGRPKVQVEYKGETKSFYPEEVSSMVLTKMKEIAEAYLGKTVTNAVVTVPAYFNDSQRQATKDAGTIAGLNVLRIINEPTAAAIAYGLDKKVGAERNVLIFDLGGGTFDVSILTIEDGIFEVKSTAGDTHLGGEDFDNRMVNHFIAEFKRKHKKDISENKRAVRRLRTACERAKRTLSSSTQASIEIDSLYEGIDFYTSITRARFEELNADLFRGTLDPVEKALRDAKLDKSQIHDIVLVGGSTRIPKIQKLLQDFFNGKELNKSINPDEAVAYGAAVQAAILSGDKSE

With `COc1ccc(-c2nc(-c3cc(C(F)(F)F)cc(C(F)(F)F)c3)n(Cc3ccc(C(=O)NCCOCCOCCN)cc3)c2-c2ccc(OC)cc2)cc1` [Az, apoptozole], the IC50 in the assay with KG-1 cells was 3.3 ± 0.71 µM; with U937 cells, 4.7 ± 0.77 µM; in the assay on Jurkat cells, 3.1 ± 0.61 µM; with THP-1 cells, 3.7 ± 0.73 µM; in the assay with K562 cells, 3.6 ± 0.52 µM; with HL-60 cells it was 2.8 ± 0.87 µM. The “caspase activity of treated cells” value in assay [1] is “increase”. In addition, in assay [2], the “effect on binding of ATP to the ATPase domain” value is “blocks ATP binding”.
